Reference: patent US9447083B2, “N-acylhydrazone derivatives for selective T cell inhibitor and anti-lymphoid malignancy drug” (CHONG KUN DANG PHARMACEUTICAL CORP., priority 2012, dated 2016)

Test system: alloantigen-specific T cells
Test: Inhibitory effect against alloantigen-specific T cells in vitro (mixed lymphocyte reaction, CFSE / 7-AAD)
Type: cell-based, mouse
Settings: for Apoptosis % (mean ± SD) Primary Response / Apoptosis % (mean ± SD) Secondary Response: 72 hours; for Apoptosis % (mean ± SD) Primary Response: vehicle 30.91 ± 3.80; for Apoptosis % (mean ± SD) Secondary Response: vehicle 39.10 ± 4.10
Description: The lymph nodes and spleens were aseptically collected from normal C57BL/6 mice (8-12 week old, female, 20±2 g) and were ground with adding of RPMI medium. Then, the ground tissues were passed through a cell strainer (BD Falcon) to make single cell suspensions. The single cell suspension of the spleen was centrifuged at 1200 rpm for 5 minutes. The supernatant was removed, and then 1 mL of ammonium chloride/potassium bicarbonate (ACK) lysis buffer (0.15 M NH4Cl, 1 mM KHCO3, 0.1 mM Na2EDTA) was added to the cells, which were then vortexed for 1 minute and washed with RPMI medium. […] The incubated cell suspension was added with 10 mL of MACS buffer, centrifuged for 5 minutes, washed, and then re-suspended in 2 mL of MACS buffer. The suspended cells were placed in the autoMACS Pro Separator (Miltenyi Biotec), and T cells bound to CD90.2 microbeads were isolated. The isolated T cells were washed with phosphate buffered saline (PBS), and then re-suspended in PBS at a concentration of 1×10^8 cells/mL. Normal BALB/c mice (10-12 week old, female, 20-23 g) were irradiated with 950 rad of γ radiation using IBL 437C irradiator (CIS bio international), and then 100 μL of the above-prepared T cell suspension of C57BL/6 mice were injected into the tail vein of the BALB/c mice. At 3 days after the cell injection, the mice were sacrificed, and the spleens were obtained. An erythrocyte-free single cell suspension was made from the obtained spleens in the same manner as described above, and donor T cells were separated from the spleen cell suspension using the autoMACS Pro Separator, thereby preparing secondary responder cells. Meanwhile, T cells were isolated from normal C57BL/6 mice in the same manner as described above, thereby preparing primary responder cells. Each of the primary and secondary responder cells were re-suspended in 1 mL of 1% FBS-containing PBS, and treated with 3 μM of carboxyfluorescein diacetate succinimidyl ester (CFSE, Invitrogen), and then allowed to react at room temperature for 4 minutes. To stop the reaction, cold-stored 5% FBS-containing PBS was added to the cell suspension, followed by washing. The washed cells were re-suspended in 10% FBS-containing RPMI medium at a concentration of 2×10^6/mL. The spleens of normal BALB/c mice (8-12 week old, female, 20±2 g) were aseptically collected. The erythrocyte-free spleen cells were prepared in the same manner as described above, and then re-suspended in 1 mL of PBS. 0.5 mg/mL of Mitomycin-C(Sigma) was added to the suspension at a concentration of 0.5 μg/mL, and the cells were incubated at 37° C. for 20 minutes, and then washed three times with an excessive amount of PBS. The washed cells were re-suspended in 10% FBS-containing RPMI medium at a concentration of 4×10^6 cells/mL, thereby preparing stimulator cells. The primary and secondary responder cells were mixed with the stimulator cells at a ratio of 1:1 separately, and 200 μL of each cell mixtures was dispensed into each well of a round bottom 96-well plate (Costar). Then, the cells were treated with 10 μL of Compound 229 diluted in RPMI medium at various concentrations, and incubated in a 5% CO2 incubator at 37° C. for 72 hours. In a vehicle control group, the cells were 10 μL of 0.2% DMSO-containing RPMI medium. The incubated cells were placed into 5-mL FACS tubes and washed with 1 mL of fluorescence activated cell sorting (FACS) buffer (1% FBS and 0.1% sodium azaide in PBS). The washed cells were re-suspended in 0.1 mL of FACS buffer, and then treated with 1 μg of mouse immunoglobulin G (IgG, e-Biosciences) in order to prevent the non-specific binding of antibody, followed by incubation at 4° C. for 15 minutes. Then, the cells were stained with 0.5 μg of phycoerythrin-conjugated anti-mouse H-2K^b mAb (e-Biosciences) and stained at 4° C. for 30 minutes. After the staining, the cells were washed twice with 1 mL of FACS buffer, re-suspended in 0.1 mL of FACS buffer, stained with 7-AAD at room temperature for 5 minutes. […]

Cc1cc(C)c(OCC(=O)N/N=C/c2ccc3cc[nH]c3c2)c(C2CCOC2)c1 (stereo not drawn) [Compound 229, (E)-N′-((1H-indol-6-yl)methylene)-2-(2,4-dimethyl-6-(tetrahydrofuran-3-yl)phenoxy)acetohydrazide]
Apoptosis % (mean ± SD) Primary Response (0.125 μM, 7-AAD): 28.42 ± 5.31% | Apoptosis % (mean ± SD) Secondary Response (0.125 μM, 7-AAD): 41.40 ± 4.35% | increase of apoptosis compared to the vehicle control group, secondary response (0.25 μM or higher, 7-AAD): 21-42% | Apoptosis % (mean ± SD) Primary Response (0.25 μM, 7-AAD): 31.20 ± 4.26% | Apoptosis % (mean ± SD) Secondary Response (0.25 μM, 7-AAD): 60.27 ± 6.10 % | increase of apoptosis compared to the vehicle control group, primary response (0.5 μM or higher, 7-AAD): 14-19% | ratio of T cells (CFSE low) that proliferated in response to the alloantigen, of the total T cells (0.5 μM or higher, vehicle control 50%): ≤ 3% | Apoptosis % (mean ± SD) Primary Response (0.5 μM, 7-AAD): 45.01 ± 5.48 % | Apoptosis % (mean ± SD) Secondary Response (0.5 μM, 7-AAD): 81.70 ± 5.62 % | Apoptosis % (mean ± SD) Primary Response (1 μM, 7-AAD): 50.37 ± 6.19 % | Apoptosis % (mean ± SD) Secondary Response (1 μM, 7-AAD): 80.37 ± 7.16 % | proliferation of the alloantigen-specific T cells, secondary response (T cells activated primarily by the alloantigen in vivo, reacted with the same antigen in vitro): effectively inhibited
